Experiment [1] can be described thus: The cytotoxic activity was evaluated in MDBK cells. To be noted: Bos taurus. It is filed as functional.
A short description of experiment [2]: Tested for activity against A/WSN/33 influenza strain-induced toxicity in MDBK cells by using cell protection assay. It is filed as functional, organism-based.
A short description of experiment [3]: Tested for activity against A/WSN/33 influenza strain-induced toxicity in MDBK cells by using cell protection assay; Not active. It is filed as functional, organism-based.
A short description of experiment [4]: The compound was tested for activity against A/WSN/33 influenza strain-induced toxicity in MDBK cells by using cell protection assay; Not active at 50 ug/mL. It is filed as functional, cell-based, Bos taurus.

The term CC50 denotes the concentration giving 50% cytotoxicity. High values mean lower toxicity to the cells, low ones greater toxicity to the cells. As usually defined, the EC50 is the concentration needed to bring the measured effect to its halfway point. High values mean lower potency in that assay, low ones higher potency in that assay.

≈ marks a conversion by molar mass, not a printed value.

Consider `Cc1ccc(O)c(C(=O)NCCCN(C(C)C)C(C)C)c1`, for which the CC50 in experiment [1] was greater than 100 µg/mL. In experiment [2], this compound displayed an EC50 of 0.9 µg/mL (≈ 3.08 µM).
In turn, `C[C@@H]1CCC[C@H](C)N1CCCCNC(=O)c1cc(Cl)ccc1O` yielded a CC50 in experiment [1] of 100 µg/mL (≈ 295 µM). In experiment [2], this compound came in with an EC50 of 1 µg/mL (≈ 2.95 µM).
In the case of `CN1C2CCC1CC(NC(=O)c1cc(Cl)ccc1O)C2` (centres undefined), in experiment [3], the half-maximal effective concentration (EC50) entry is “Not Active”. This compound showed a CC50 in experiment [1] of 100 µg/mL (≈ 339 µM).
Take `O=C(NCCCN1CCC[C@@H]2CCCC[C@@H]21)c1cc(Cl)ccc1O`: half-maximal cytotoxicity in experiment [1] (CC50) was put at 43 µg/mL (≈ 123 µM). The EC50 in experiment [2] came out at 1.4 µg/mL (≈ 3.99 µM).
Compound `CC1CC[C@@H]2CCCC[C@@H]2N1CCCNC(=O)c1cc(Cl)ccc1O` (some centres undefined) showed a CC50 in experiment [1] of 40 µg/mL (≈ 110 µM). In experiment [2], the midpoint of the response, the EC50, lay at 0.09 µg/mL (≈ 0.247 µM).
Turning to `Cc1ccc(O)c(C(=O)NCCCN2[C@H](C)CC[C@@H]3CCCC[C@@H]32)c1`, it took 35 µg/mL (≈ 102 µM) to reach half-maximal cytotoxicity in experiment [1] (CC50). Besides, in experiment [2], the EC50 worked out at 0.19 µg/mL (≈ 0.552 µM).
The compound `Cc1ccc(O)c(C(=O)NCCCN2C(C)CC[C@@H]3CCCC[C@H]32)c1` (single isomer, unassigned) had a half-maximal cytotoxic concentration (CC50) in experiment [1] of 30 µg/mL (≈ 87.1 µM). For the same compound, in experiment [2], a half-maximal effect (EC50) was put at 1.5 µg/mL (≈ 4.35 µM).
On to `Cc1ccc(O)c(C(=O)NCCCCN2CCC[C@@H]3CCCC[C@@H]32)c1`, for which the concentration for a half-maximal effect (EC50) result in experiment [3] is on record as “Not Active”. The compound also returned a half-maximal cytotoxic concentration (CC50) in experiment [1] of 30 µg/mL (≈ 87.1 µM).
For `Cc1ccc(O)c(C(=O)NCCCN2C(C(C)C)CC[C@@H]3CCCC[C@@H]32)c1` (some centres undefined), the CC50 in experiment [1] stood at 80 µg/mL (≈ 215 µM). Also, the EC50 in experiment [2] was 0.25 µg/mL (≈ 0.671 µM).
Regarding `Cc1ccc(O)c(C(=O)NCCCN2CCC(C)[C@@H]3CCCC[C@@H]32)c1` (some centres undefined), the EC50 result in experiment [3] is “Not Active”. In experiment [1], this compound displayed a CC50 of 100 µg/mL (≈ 290 µM).
In turn, `C[C@@H]1CCC[C@@H]2C[C@@H](NC(=O)c3cc(Cl)ccc3O)CCN21` registered a CC50 in experiment [1] greater than 200 µg/mL. Further, in experiment [2], the midpoint of the response, the EC50, lay at 0.8 µg/mL (≈ 2.48 µM).
For `Cc1ccc(O)c(C(=O)NCCCCN2[C@H](C)CCC[C@@H]2C)c1` the same measures were greater than 100 µg/mL and 0.7 µg/mL (≈ 2.2 µM).
Regarding `Cc1ccc(O)c(C(=O)NCCCN2CC(C)C[C@@H]3CCCC[C@@H]32)c1` (some centres undefined), in experiment [3], the EC50 entry is recorded as “Not Active”. The compound also showed a CC50 in experiment [1] of 9.5 µg/mL (≈ 27.6 µM).
`Cc1ccc(O)c(C(=O)NCCCCN2C(C)CC[C@@H]3CCCC[C@@H]32)c1` (some centres undefined): the EC50 entry in experiment [3] was “Not Active”. The CC50 in experiment [1] came to 90 µg/mL (≈ 251 µM).
The compound `Cc1ccc(O)c(C(=O)NCCCN2[C@H](C)CCC[C@@H]2C)c1` registered a CC50 in experiment [1] greater than 100 µg/mL. Further, in experiment [2], the EC50 is 1.8 µg/mL (≈ 5.91 µM).
As to `CCC(C)N1CCC(NC(=O)c2cc(C)ccc2O)CC1` (centres undefined), the half-maximal effective concentration (EC50) entry in experiment [4] was “Not Active”. Besides, in experiment [1], half-maximal cytotoxicity (CC50) was put at 100 µg/mL (≈ 344 µM).
For the compound `Cc1ccc(O)c(C(=O)NCCCN2[C@@H](C)CC[C@@H]3CCCC[C@@H]32)c1`, the CC50 in experiment [1] was greater than 100 µg/mL. In addition, the EC50 in experiment [2] amounted to 6 µg/mL (≈ 17.4 µM).
In experiment [1], `C[C@@H]1CCC[C@H](C)N1CCCNC(=O)c1cc(Cl)ccc1O` had a CC50 of 30 µg/mL (≈ 92.3 µM). Further, the response in experiment [2] was half-maximal at 4.5 µg/mL (≈ 13.9 µM) (EC50).
`Cc1ccc(O)c(C(=O)NC2CC3CCC(C2)N3C)c1` (centres undefined): the EC50 entry in experiment [3] was “Not Active”. The compound also registered a half-maximal cytotoxic concentration (CC50) in experiment [1] of 100 µg/mL (≈ 364 µM).
Compound `Cc1ccc(O)c(C(=O)NCCCN2CCC[C@@H]3CCCC[C@@H]32)c1` had a CC50 in experiment [1] greater than 100 µg/mL. The compound further came in with an EC50 in experiment [2] of 0.65 µg/mL (≈ 1.97 µM).
In experiment [1], `O=C(NCCCN1CCC[C@@H]2CCCC[C@H]21)c1cc(Cl)ccc1O` registered a CC50 of 45 µg/mL (≈ 128 µM). This compound displayed an EC50 in experiment [2] of 1.4 µg/mL (≈ 3.99 µM).
For `Cc1ccc(O)c(C(=O)NCCCN2CCC[C@@H]3CCCC[C@H]32)c1` the same measures were 60 µg/mL (≈ 182 µM) and 0.35 µg/mL (≈ 1.06 µM).

Values taken from ChEMBL document CHEMBL1133031, “Salicylamide inhibitors of influenza virus fusion” (Bioorg Med Chem Lett, 2000).
